Measurements taken from patent US8198273B2, “Compounds and methods for kinase modulation, and indications therefor” (Plexxikon Inc., priority 2009, dated 2012).

Key:
CYP3A4(BFC) = CYP3A4(BFC) (Homo sapiens, UniProt P08684); assay: CYP3A4(BFC) inhibition (fluorescent substrate); format: in vitro ADME; details: read-out: Cyp IC50 3A4(BFC)
Method: CYP (Cytochrome P450) enzymes are the major drug metabolizing enzymes present in the liver. The inhibition of CYP enzyme activity (IC50) for each of CYP1A2, CYP2C19, CYP2C9, CYP2D6, CYP3A4(BFC) and CYP3A4(BQ) is determined for compounds, where inhibition of metabolism of a known substrate leads to a decrease in the fluorescence of the metabolized product. The fluorescence of the product is monitored as a function of compound concentration. Compounds are dissolved in dimethyl sulfoxide to a concentration of 100 mM. These are diluted 1 μL into 82 μL of acetonitrile. […] These are then serially diluted 1:1 (160 μL to 160 μL co-factor mix) for a total of 10 points. A 10 μL aliquot of this final mixture is dispensed into 384 well assay plates and incubated for 10 minutes at 37° C. […] Assay plates are incubated at 37° C. […] The signal versus compound concentration is used to determine the IC50. The enzymes and substrates for this assay are obtained from BD Biosciences.

CYP2C9 = CYP2C9 (Homo sapiens, UniProt P11712); assay: CYP2C9 inhibition (fluorescent substrate); format: in vitro ADME; details: CYP2C9, MFC substrate; read-out: Cyp IC50 2C9
CYP2C9, sequence (P11712 whole entry): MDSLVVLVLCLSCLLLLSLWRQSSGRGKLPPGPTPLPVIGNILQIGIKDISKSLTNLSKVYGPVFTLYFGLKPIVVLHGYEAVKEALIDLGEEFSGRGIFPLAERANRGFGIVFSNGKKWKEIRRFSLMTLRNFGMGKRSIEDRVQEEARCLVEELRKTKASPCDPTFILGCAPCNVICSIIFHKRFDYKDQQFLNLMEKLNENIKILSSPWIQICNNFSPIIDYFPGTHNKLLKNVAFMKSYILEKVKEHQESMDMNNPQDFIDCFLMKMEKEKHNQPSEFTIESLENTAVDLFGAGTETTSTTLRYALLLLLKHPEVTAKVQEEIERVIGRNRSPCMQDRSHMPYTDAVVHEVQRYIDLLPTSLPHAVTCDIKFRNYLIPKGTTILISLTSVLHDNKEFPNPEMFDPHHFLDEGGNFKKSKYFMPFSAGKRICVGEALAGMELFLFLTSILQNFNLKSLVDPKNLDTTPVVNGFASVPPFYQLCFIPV
Method: CYP (Cytochrome P450) enzymes are the major drug metabolizing enzymes present in the liver. The inhibition of CYP enzyme activity (IC50) for each of CYP1A2, CYP2C19, CYP2C9, CYP2D6, CYP3A4(BFC) and CYP3A4(BQ) is determined for compounds, where inhibition of metabolism of a known substrate leads to a decrease in the fluorescence of the metabolized product. The fluorescence of the product is monitored as a function of compound concentration.
Compounds are dissolved in dimethyl sulfoxide to a concentration of 100 mM. These are diluted 1 μL into 82 μL of acetonitrile. […] These are then serially diluted 1:1 (160 μL to 160 μL co-factor mix) for a total of 10 points. A 10 μL aliquot of this final mixture is dispensed into 384 well assay plates and incubated for 10 minutes at 37° C. […] Assay plates are incubated at 37° C. […] The signal versus compound concentration is used to determine the IC50. The enzymes and substrates for this assay are obtained from BD Biosciences.

B-Raf V600E = B-Raf V600E (Homo sapiens, UniProt P15056, V600E); assay: B-Raf V600E biochemical kinase inhibition (AlphaScreen, biotin-MEK1 substrate); details: 100 μM ATP
B-Raf V600E, sequence (P15056 whole entry V600E): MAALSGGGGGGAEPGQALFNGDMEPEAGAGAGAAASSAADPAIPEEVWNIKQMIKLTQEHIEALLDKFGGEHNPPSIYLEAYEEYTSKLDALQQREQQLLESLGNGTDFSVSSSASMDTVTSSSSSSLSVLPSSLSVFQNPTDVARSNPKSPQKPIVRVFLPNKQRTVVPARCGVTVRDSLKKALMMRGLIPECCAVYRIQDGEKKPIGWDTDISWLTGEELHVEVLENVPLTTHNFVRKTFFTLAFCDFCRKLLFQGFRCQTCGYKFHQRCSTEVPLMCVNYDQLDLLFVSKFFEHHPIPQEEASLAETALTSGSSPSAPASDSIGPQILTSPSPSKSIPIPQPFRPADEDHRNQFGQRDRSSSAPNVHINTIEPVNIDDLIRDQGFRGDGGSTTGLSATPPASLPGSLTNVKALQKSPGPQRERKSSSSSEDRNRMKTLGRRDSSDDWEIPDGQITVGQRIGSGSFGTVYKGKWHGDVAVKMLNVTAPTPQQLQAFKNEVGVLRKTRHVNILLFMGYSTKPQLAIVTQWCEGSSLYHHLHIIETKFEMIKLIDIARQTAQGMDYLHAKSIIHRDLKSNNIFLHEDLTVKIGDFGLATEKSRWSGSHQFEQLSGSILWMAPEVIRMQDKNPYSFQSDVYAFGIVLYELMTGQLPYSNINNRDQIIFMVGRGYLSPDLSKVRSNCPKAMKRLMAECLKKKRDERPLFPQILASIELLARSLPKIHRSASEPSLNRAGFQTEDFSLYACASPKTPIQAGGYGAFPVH
Method: Compounds to be tested are diluted in dimethyl sulfoxide to a concentration of 0.1 mM. These are serially diluted 15 μL into 30 μL of dimethyl sulfoxide seven times in 96 well plates for a total of 8 dilution points, and for each dilution point 1 μL is added to a well of an assay plate. […] The reaction is started with addition of 10 μL of 200 μM ATP (i.e. final 100 μM ATP). […] The plates are incubated for 3 hours at room temperature and read on Envision reader (Perkin Elmer). […] The signal vs. compound concentration is used to determine the IC50.

CYP3A4(BFC), sequence (P08684 whole entry): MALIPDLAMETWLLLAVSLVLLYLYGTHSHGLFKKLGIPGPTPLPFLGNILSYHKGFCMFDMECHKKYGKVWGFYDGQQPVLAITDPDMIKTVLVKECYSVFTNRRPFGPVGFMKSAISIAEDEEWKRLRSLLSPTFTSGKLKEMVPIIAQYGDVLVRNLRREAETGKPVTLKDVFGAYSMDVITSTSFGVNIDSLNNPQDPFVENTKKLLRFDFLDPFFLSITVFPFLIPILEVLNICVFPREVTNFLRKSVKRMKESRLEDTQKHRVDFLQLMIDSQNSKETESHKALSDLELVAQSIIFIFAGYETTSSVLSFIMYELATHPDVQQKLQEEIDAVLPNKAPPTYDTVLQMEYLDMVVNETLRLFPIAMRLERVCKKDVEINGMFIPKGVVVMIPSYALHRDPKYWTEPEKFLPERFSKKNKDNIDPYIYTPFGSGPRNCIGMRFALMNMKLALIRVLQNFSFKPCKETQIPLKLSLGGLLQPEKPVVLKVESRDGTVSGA

Structure (SMILES)	IC50 (CYP3A4(BFC)) [µM]	IC50 (CYP2C9) [µM]	IC50 (B-Raf V600E) [µM]
CCCS(=O)(=O)Nc1ccc(F)c(C(=O)c2c[nH]c3ncc(-c4ccc(C#CCN(CC)CC)nc4)cc23)c1F [P-2222, Propane-1-sulfonic acid (3-{5-[6-(3-diethylamino-prop-1-ynyl)-pyridin-3-yl]-1H-pyrrolo[2,3-b]pyridine-3-carbonyl}-2,4-difluoro-phenyl)-amide]	> 10	5 to 10	< 0.01
CCCS(=O)(=O)Nc1ccc(F)c(C(=O)c2c[nH]c3ncc(-c4ccc(C(=O)NC5CC5)nc4)cc23)c1F [P-2181, 5-{3-[2,6-Difluoro-3-(propane-1-sulfonylamino)-benzoyl]-1H-pyrrolo[2,3-b]pyridin-5-yl}-pyridine-2-carboxylic acid cyclopropylamide]	> 10	< 5	< 0.01
CCCS(=O)(=O)Nc1ccc(F)c(C(=O)c2c[nH]c3ncc(-c4ccc(OCCCN5CCOCC5)nc4)cc23)c1F [P-2236, Propane-1-sulfonic acid (2,4-difluoro-3-{5-[6-(3-morpholin-4-yl-propoxy)-pyridin-3-yl]-1H-pyrrolo[2,3-b]pyridine-3-carbonyl}-phenyl)-amide]	< 5	< 5	< 0.01
CCCS(=O)(=O)Nc1ccc(F)c(C(=O)c2c[nH]c3ncc(-c4ccc(SC)nc4)cc23)c1F [P-2187, Propane-1-sulfonic acid {2,4-difluoro-3-[5-(6-methylsulfanyl-pyridin-3-yl)-1H-pyrrolo[2,3-b]pyridine-3-carbonyl]-phenyl}-amide]	> 10	> 10	< 0.01
Cc1cnc2[nH]cc(C(=O)c3c(F)ccc(NS(=O)(=O)c4c(F)cccc4F)c3F)c2c1 [P-2024, N-[2,4-Difluoro-3-(5-methyl-1H-pyrrolo[2,3-b]pyridine-3-carbonyl)-phenyl]-2,6-difluoro-benzenesulfonamide]	> 10	> 10	< 0.1
COc1ncc(-c2cnc3[nH]cc(C(=O)c4c(F)ccc(NS(=O)(=O)c5ccccc5F)c4F)c3c2)cn1 [P-2041, N-{2,4-Difluoro-3-[5-(2-methoxy-pyrimidin-5-yl)-1H-pyrrolo[2,3-b]pyridine-3-carbonyl]-phenyl}-2-fluoro-benzenesulfonamide]	> 10	> 10	< 0.01
COc1ncc(-c2cnc3[nH]cc(C(=O)c4c(F)ccc(NS(=O)(=O)c5cc(F)ccc5F)c4F)c3c2)cn1 [P-2042, N-{2,4-Difluoro-3-[5-(2-methoxy-pyrimidin-5-yl)-1H-pyrrolo[2,3-b]pyridine-3-carbonyl]-phenyl}-2,5-difluoro-benzenesulfonamide]	> 10	5 to 10	< 0.01
COc1ccnc2[nH]cc(C(=O)c3c(F)ccc(NS(=O)(=O)c4cccc(F)c4)c3F)c12 [P-2023, N-[2,4-Difluoro-3-(4-methoxy-1H-pyrrolo[2,3-b]pyridine-3-carbonyl)-phenyl]-3-fluoro-benzenesulfonamide]	5 to 10	5 to 10	< 0.01
N#Cc1cnc2[nH]cc(C(=O)c3cccc(NS(=O)(=O)c4c(F)cccc4F)c3F)c2c1 [P-2054, N-[3-(5-Cyano-1H-pyrrolo[2,3-b]pyridine-3-carbonyl)-2-fluoro-phenyl]-2,6-difluoro-benzenesulfonamide]	> 10	> 10	< 0.01
CCCS(=O)(=O)Nc1ccc(F)c(C(=O)c2c[nH]c3ncc(-c4cnn(Cc5ccccc5)c4)cc23)c1F [P-2190, Propane-1-sulfonic acid {3-[5-(1-benzyl-1H-pyrazol-4-yl)-1H-pyrrolo[2,3-b]pyridine-3-carbonyl]-2,4-difluoro-phenyl}-amide]	> 10	< 5	< 0.01
CCCc1ccc(-c2cnc3[nH]cc(C(=O)c4c(F)ccc(NS(=O)(=O)CCC)c4F)c3c2)cn1 [P-2224, Propane-1-sulfonic acid {2,4-difluoro-3-[5-(6-propyl-pyridin-3-yl)-1H-pyrrolo[2,3-b]pyridine-3-carbonyl]-phenyl}-amide]	> 10	5 to 10	< 0.01
CCCS(=O)(=O)Nc1ccc(F)c(C(=O)c2c[nH]c3ncc(-c4cnc(OC)nc4OC)cc23)c1F [P-2199, Propane-1-sulfonic acid {3-[5-(2,4-dimethoxy-pyrimidin-5-yl)-1H-pyrrolo[2,3-b]pyridine-3-carbonyl]-2,4-difluoro-phenyl}-amide]	> 10	> 10	< 0.01
CCCS(=O)(=O)Nc1cccc(C(=O)c2c[nH]c3ncc(-c4cnc(N(C)C)nc4)cc23)c1F [P-2408, Propane-1-sulfonic acid {3-[5-(2-dimethylamino-pyrimidin-5-yl)-1H-pyrrolo[2,3-b]pyridine-3-carbonyl]-2-fluoro-phenyl}-amide]	> 10	5 to 10	< 0.01
COc1ncc(-c2cnc3[nH]cc(C(=O)c4c(F)ccc(NS(=O)(=O)c5cccc(F)c5)c4F)c3c2)cn1 [P-2045, N-{2,4-Difluoro-3-[5-(2-methoxy-pyrimidin-5-yl)-1H-pyrrolo[2,3-b]pyridine-3-carbonyl]-phenyl}-3-fluoro-benzenesulfonamide]	> 10	> 10	< 0.1

Results, then the molecule that gave them:

IC50 (CYP3A4(BFC)) [µM]	IC50 (CYP2C9) [µM]	IC50 (B-Raf V600E) [µM]	Structure (SMILES)
> 10	5 to 10	< 0.01	CCCS(=O)(=O)Nc1ccc(F)c(C(=O)c2c[nH]c3ncc(-c4ccc(OCCN5CCOCC5)nc4)cc23)c1F [P-2232, Propane-1-sulfonic acid (2,4-difluoro-3-{5-[6-(2-morpholin-4-yl-ethoxy)-pyridin-3-yl]-1H-pyrrolo[2,3-b]pyridine-3-carbonyl}-phenyl)-amide]
> 10	< 5	< 0.01	CCCS(=O)(=O)Nc1ccc(F)c(C(=O)c2c[nH]c3ncc(-c4ccc(CCCOC)nc4)cc23)c1F [P-2226, Propane-1-sulfonic acid (2,4-difluoro-3-{5-[6-(3-methoxy-propyl)-pyridin-3-yl]-1H-pyrrolo[2,3-b]pyridine-3-carbonyl}-phenyl)-amide]
> 10	5 to 10	< 0.1	CCCS(=O)(=O)Nc1ccc(F)c(C(=O)c2c[nH]c3ncc(-c4ccc(OC)nc4OC)cc23)c1F [P-2184, Propane-1-sulfonic acid {3-[5-(2,6-dimethoxy-pyridin-3-yl)-1H-pyrrolo[2,3-b]pyridine-3-carbonyl]-2,4-difluoro-phenyl}-amide]
> 10	5 to 10	< 0.01	CCCS(=O)(=O)Nc1ccc(F)c(C(=O)c2c[nH]c3ncc(-c4ccnc(F)c4)cc23)c1F [P-2192, Propane-1-sulfonic acid {2,4-difluoro-3-[5-(2-fluoro-pyridin-4-yl)-1H-pyrrolo[2,3-b]pyridine-3-carbonyl]-phenyl}-amide]
> 10	> 10	< 0.1	COc1ccnc2[nH]cc(C(=O)c3c(F)ccc(NS(=O)(=O)c4ccccc4F)c3F)c12 [P-2021, N-[2,4-Difluoro-3-(4-methoxy-1H-pyrrolo[2,3-b]pyridine-3-carbonyl)-phenyl]-2-fluoro-benzenesulfonamide]
> 10	> 10	< 0.1	O=C(c1c(F)ccc(NS(=O)(=O)c2c(F)cccc2F)c1F)c1c[nH]c2ncc(Cl)cc12 [P-2003, N-[3-(5-Chloro-1H-pyrrolo[2,3-b]pyridine-3-carbonyl)-2,4-difluoro-phenyl]-2,6-difluoro-benzenesulfonamide]
> 10	> 10	< 0.01	CCCS(=O)(=O)Nc1ccc(F)c(C(=O)c2c[nH]c3ncc(-c4ccc(S(N)(=O)=O)cc4)cc23)c1F [P-2194, 4-{3-[2,6-Difluoro-3-(propane-1-sulfonylamino)-benzoyl]-1H-pyrrolo[2,3-b]pyridin-5-yl}-benzenesulfonamide]
> 10	5 to 10	< 0.01	CCCS(=O)(=O)Nc1ccc(F)c(C(=O)c2c[nH]c3ncc(-c4ccc(N5CCCC5)nc4)cc23)c1F [P-2231, Propane-1-sulfonic acid {2,4-difluoro-3-[5-(6-pyrrolidin-1-yl-pyridin-3-yl)-1H-pyrrolo[2,3-b]pyridine-3-carbonyl]-phenyl}-amide]
